Source: the supplement of paper PMC11061612

Key:
Assay in all cases: Bliss excess, mean over the matrix (fraction); higher = more synergy
[1] = tested on: BICR78 (Oral Cavity Carcinoma)
In short: (§1)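 After 24 hours at 37°C and 5% CO2 in 1536-well plates, cells in DMEM/F12 or RPMI plus 10% FBS received two-drug dose matrices for 72 hours. Viability came from CellTiter-Glo 2.0 luminescence and was scaled as inhibition, anchored at 0 by vehicle wells and at 1 by blank wells. Combination Emax is taken as the second-highest inhibition in the matrix, and Bliss excess as the observed combination effect less EA + EB − EA·EB, with EA and EB the single-agent effects.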

CS1 (Chondrosarcoma) = tested on: CS1 (Chondrosarcoma)
In short: as §1

D-392MG (Glioblastoma) = tested on: D-392MG (Glioblastoma)
In short: as §1

[2] = tested on: DOK (Oral Cavity Carcinoma)
In short: as §1

EW-22 (Ewing's Sarcoma) = tested on: EW-22 (Ewing's Sarcoma)
In short: as §1

[3] = tested on: FU-OV-1 (Ovarian Carcinoma)
In short: as §1

HCC38 (Breast Carcinoma) = tested on: HCC38 (Breast Carcinoma)
In short: as §1

[4] = tested on: HLE (Hepatocellular Carcinoma)
In short: as §1

[5] = tested on: NOMO-1 (Acute Myeloid Leukemia)
In short: as §1

[6] = tested on: P31-FUJ (Acute Myeloid Leukemia)
In short: as §1

[7] = tested on: SK-LMS-1 (Other Solid Carcinomas)
In short: as §1

SK-MEL-1 (Melanoma) = tested on: SK-MEL-1 (Melanoma)
In short: as §1

[8] = tested on: SK-UT-1 (Other Solid Carcinomas)
In short: as §1

[9] = tested on: SLVL (B-Cell Non-Hodgkin's Lymphoma)
In short: as §1

[10] = tested on: SNG-M (Endometrial Carcinoma)
In short: as §1

[11] = tested on: SW948 (Colorectal Carcinoma)
In short: as §1

Saos-2 (Osteosarcoma) = tested on: Saos-2 (Osteosarcoma)
In short: as §1

[12] = tested on: TC-YIK (Other Solid Carcinomas)
In short: as §1

[13] = tested on: WSU-DLCL2 (B-Cell Non-Hodgkin's Lymphoma)
In short: as §1

[14] = tested on: YT (Other Blood Carcinomas)
In short: as §1

SMILES	Bliss excess [1]	Bliss excess (CS1 (Chondrosarcoma))	Bliss excess (D-392MG (Glioblastoma))	Bliss excess [2]	Bliss excess (EW-22 (Ewing's Sarcoma))	Bliss excess [3]	Bliss excess (HCC38 (Breast Carcinoma))	Bliss excess [4]	Bliss excess [5]	Bliss excess [6]	Bliss excess [7]	Bliss excess (SK-MEL-1 (Melanoma))	Bliss excess [8]	Bliss excess [9]	Bliss excess [10]	Bliss excess [11]	Bliss excess (Saos-2 (Osteosarcoma))	Bliss excess [12]	Bliss excess [13]	Bliss excess [14]
O=C(c1cc(Cc2n[nH]c(=O)c3ccccc23)ccc1F)N1CCN(C(=O)C2CC2)CC1 [Olaparib] + Cc1c2c(nn1C)CSCc1cc(n(C)n1)CSc1cc(c3ccccc3c1)OCCCc1c(C(=O)O)n(C)c3c-2c(Cl)ccc13 [AZD5991] (first compound max 10 µM, 7x7, partner max 1 µM)	-0.0643	-0.0483	-0.0661	-0.0192	-0.016	-0.071	-0.0457	-0.0144	-0.0167	-0.0125	-0.0076	-0.0301	-0.0141	-0.0034	0.002	-0.0449	-0.0087	-0.0566	0.0378	0.0191
O=C(c1cc(Cc2n[nH]c(=O)c3ccccc23)ccc1F)N1CCN(C(=O)C2CC2)CC1 [Olaparib] + CN(CC[C@H](CSC1=CC=CC=C1)NC2=C(C=C(C=C2)S(=O)(=O)NC(=O)C3=CC=C(C=C3)N4CCC(CC4)[C@H](C5=CC=CC=C5C6=CC=C(C=C6)Cl)O)S(=O)(=O)C(F)(F)F)CCO [AZD4320] (first compound max 10 µM, 7x7, partner max 1 µM)	-0.0656	-0.0342	-0.0317	-0.101	0.0385	-0.0355	-0.0541	-0.0213	0.034	-0.131	-0.0169	-0.0299	0.0299	0.0356	-0.014	-0.0165	-0.0312	0.0047	0.0579	-0.0505
O=C(c1cc(Cc2n[nH]c(=O)c3ccccc23)ccc1F)N1CCN(C(=O)C2CC2)CC1 [Olaparib] + COc1nnc2ccc(N3CCC(c4ccc(OCCN5CCN(C)C(=O)[C@H]5C)cc4)CC3)nn12 [AZD5153] (first compound max 10 µM, 7x7, partner max 1 µM)	-0.0458	-0.0718	-0.0759	-0.0404	0.0369	-0.0107	-0.0793	-0.0392	-0.0589	-0.0621	-0.0329	-0.0316	-0.02	0.0142	-0.0663	-0.0441	-0.02	-0.0784	-0.0091	-0.107
C[C@@H](Nc1cc(F)cc(F)c1)c1cc(C(=O)N(C)C)cc2c(=O)cc(N3CCOCC3)oc12 [AZD8186] + C1CN(CCC1(C(=O)N[C@@H](CCO)C2=CC=C(C=C2)Cl)N)C3=NC=NC4=C3C=CN4 [AZD5363] (first compound max 10 µM, 7x7, partner max 10 µM)	-0.0269	-0.0711	-0.122	-0.0231	-0.0197	-0.117	-0.0395	0.0045	0.0385	-0.03	0.0606	-0.039	0.0224	0.0553	-0.0046	0.0414	0.0104	-0.0292	-0.0155	-0.0175
Cc1c2c(nn1C)CSCc1cc(n(C)n1)CSc1cc(c3ccccc3c1)OCCCc1c(C(=O)O)n(C)c3c-2c(Cl)ccc13 [AZD5991] + CC(=O)O[C@H]1C(=O)[C@@]2(C)[C@H]([C@H](OC(=O)c3ccccc3)[C@]3(O)C[C@H](OC(=O)[C@H](O)[C@@H](NC(=O)c4ccccc4)c4ccccc4)C(C)=C1C3(C)C)[C@]1(OC(C)=O)CO[C@@H]1C[C@@H]2O [Paclitaxel] (first compound max 1 µM, 7x7, partner max 3 µM)	-0.0412	-0.012	0.046	-0.0004	-0.0122	0.0262	-0.0632	-0.0411	-0.0215	-0.0253	-0.0569	-0.0045	0.008	-0.0181	0.0374	-0.0421	0.0358	-0.0709	-0.0151	-0.0159
CN(CCO)CC[C@H](CSc1ccccc1)Nc1ccc(S(=O)(=O)NC(=O)c2ccc(N3CCC([C@@H](O)c4ccccc4-c4ccc(Cl)cc4)CC3)cc2)cc1S(=O)(=O)C(F)(F)F [AZD4320] + CS(=O)(=O)CCNCc1ccc(-c2ccc3ncnc(Nc4ccc(OCc5cccc(F)c5)c(Cl)c4)c3c2)o1 [Lapatinib] (first compound max 1 µM, 7x7, partner max 10 µM)	0.0251	0.0095	-0.0269	0.0402	0.0967	-0.0203	0.0173	0.0535	0.0709	0.109	0.0357	-0.0444	0.006	0.0675	-0.0091	0.0049	0.083	0.0065	0.203	0.0643
CC1(C)CCC(CN2CCN(c3ccc(C(=O)NS(=O)(=O)c4ccc(NCC5CCOCC5)c([N+](=O)[O-])c4)c(Oc4cnc5[nH]ccc5c4)c3)CC2)=C(c2ccc(Cl)cc2)C1 [Venetoclax] + CS(=O)(=O)CCNCc1ccc(-c2ccc3ncnc(Nc4ccc(OCc5cccc(F)c5)c(Cl)c4)c3c2)o1 [Lapatinib] (first compound max 1 µM, 7x7, partner max 10 µM)	-0.0451	-0.0662	-0.0732	-0.0301	0.0031	-0.0697	-0.0355	-0.0347	0.0105	0.0811	-0.0127	0.0097	-0.0286	0.017	-0.0166	-0.0407	-0.0131	-0.0035	0.0902	0.0123
C[C@@H](Nc1cc(F)cc(F)c1)c1cc(C(=O)N(C)C)cc2c(=O)cc(N3CCOCC3)oc12 [AZD8186] + CC(=O)c1c(C)c2cnc(Nc3ccc(N4CCNCC4)cn3)nc2n(C2CCCC2)c1=O [Palbociclib] (first compound max 10 µM, 7x7, partner max 10 µM)	-0.0525	0.0326	-0.0827	0.0079	0.05	-0.0311	-0.0466	0.0326	0.0983	-0.0164	0.147	0.0098	0.008	0.0035	-0.0361	-0.0457	-0.0181	0.036	0.0762	0.0407
N#Cc1cnc(Nc2cc(NC[C@H]3CNCCO3)c(C(F)(F)F)cn2)cn1 [SRA737] + O=c1[nH]cc(F)c(=O)[nH]1 [5-Fluorouracil] (first compound max 10 µM, 7x7, partner max 20 µM)	0.0904	-0.0251	-0.0369	0.0382	0.0416	-0.0284	0.0257	-0.0146	-0.0007	-0.0034	-0.0143	-0.0178	-0.0052	-0.0551	-0.0115	-0.0314	-0.0179	0.0119	0.114	0.0012
CN(CCO)CC[C@H](CSc1ccccc1)Nc1ccc(S(=O)(=O)NC(=O)c2ccc(N3CCC([C@@H](O)c4ccccc4-c4ccc(Cl)cc4)CC3)cc2)cc1S(=O)(=O)C(F)(F)F [AZD4320] + Nc1ccn([C@@H]2O[C@H](CO)[C@@H](O)C2(F)F)c(=O)n1 [Gemcitabine] (first compound max 1 µM, 7x7, partner max 0.3 µM)	-0.0581	0.0187	0.0921	0.0797	0.0287	-0.0498	-0.0171	0.0579	0.0208	-0.0492	0.0273	-0.0689	0.0159	-0.0135	-0.0568	0.0114	0.121	-0.0091	0.0032	-0.0591
